Test results taken from patent US4604355A, “Maltogenic amylase enzyme, preparation and use thereof” (Novo Industri A/S, priority 1983, dated 1986).

Molecular target: T1, C599 maltogenic amylase from Bacillus strain C599 NCIB 11837 (Geobacillus stearothermophilus, UniProt P19531)
T1 construct: The enzyme is excreted into the medium; made in house; host or cells: Bacillus strain C599 (NCIB 11837), the natural producer; no recombinant host
T1 sequence (P19531 34-719): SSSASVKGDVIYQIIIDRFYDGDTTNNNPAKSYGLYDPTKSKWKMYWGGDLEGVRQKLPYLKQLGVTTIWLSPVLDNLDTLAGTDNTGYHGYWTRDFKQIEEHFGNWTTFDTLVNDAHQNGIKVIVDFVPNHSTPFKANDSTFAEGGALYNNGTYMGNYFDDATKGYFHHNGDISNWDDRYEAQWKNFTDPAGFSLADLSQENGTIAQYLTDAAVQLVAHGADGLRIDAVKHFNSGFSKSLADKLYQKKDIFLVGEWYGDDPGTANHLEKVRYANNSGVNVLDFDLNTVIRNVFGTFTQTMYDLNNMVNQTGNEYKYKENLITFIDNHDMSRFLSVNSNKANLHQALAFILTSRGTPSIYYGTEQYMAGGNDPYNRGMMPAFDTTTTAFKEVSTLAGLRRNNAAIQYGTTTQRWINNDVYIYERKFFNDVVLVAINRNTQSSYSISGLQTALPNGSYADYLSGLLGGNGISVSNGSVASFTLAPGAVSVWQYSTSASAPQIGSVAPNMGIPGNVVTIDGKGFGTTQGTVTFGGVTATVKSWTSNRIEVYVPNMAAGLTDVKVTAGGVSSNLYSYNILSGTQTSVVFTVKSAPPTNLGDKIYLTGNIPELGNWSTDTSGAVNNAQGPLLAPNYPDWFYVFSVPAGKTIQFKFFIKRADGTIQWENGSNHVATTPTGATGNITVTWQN
Assay: Inhibition of C599-amylase (residual activity after incubation with inhibitors)
Type: biochemical
Details: None = 100
Experimental: One maltogenic amylase unit (U) is defined as the amount of enzyme which under standard conditions (temperature 60° C., pH 5.5, and reaction time 30 minutes) produces reducing sugar corresponding to 1 μmol maltose per minute.
A 0.5% soluble starch (supplied by Merck) in 0.1M acetate buffer or 0.05M phosphate buffer (pH 5) is incubated with 1 ml of the enzyme dissolved in deionized water containing 0.1-0.2 U per ml. The reaction is stopped after 30 minutes by addition of 4 ml 0.5N NaOH.
The content of reducing sugar is then determined by means of the Somogyi method (Somogyi: J.Biol.Chem., 153, p. 375-80 (1944).

SMILES	Residual activity after 60 min. at room temperature, % (inhibitor 1 mM)	Residual activity after 60 min. at room temperature, % (inhibitor 1%)
O=C(O)c1cc[c]([Hg][Cl])cc1 [PCMB, parachloromecuribenzoate]	92%	
OC[C@H]1O[C@@H]2O[C@H]3[C@H](O)[C@@H](O)[C@@H](O[C@H]4[C@H](O)[C@@H](O)[C@@H](O[C@H]5[C@H](O)[C@@H](O)[C@@H](O[C@H]6[C@H](O)[C@@H](O)[C@@H](O[C@H]7[C@H](O)[C@@H](O)[C@@H](O[C@H]1[C@H](O)[C@H]2O)O[C@@H]7CO)O[C@@H]6CO)O[C@@H]5CO)O[C@@H]4CO)O[C@@H]3CO [Schardinger-α-cyclodextrin]		109%
OC[C@H]1O[C@@H]2O[C@H]3[C@H](O)[C@@H](O)[C@@H](O[C@H]4[C@H](O)[C@@H](O)[C@@H](O[C@H]5[C@H](O)[C@@H](O)[C@@H](O[C@H]6[C@H](O)[C@@H](O)[C@@H](O[C@H]7[C@H](O)[C@@H](O)[C@@H](O[C@H]8[C@H](O)[C@@H](O)[C@@H](O[C@H]1[C@H](O)[C@H]2O)O[C@@H]8CO)O[C@@H]7CO)O[C@@H]6CO)O[C@@H]5CO)O[C@@H]4CO)O[C@@H]3CO [Schardinger-β-cyclodextrin]		107%
